Test results reported in article PMC7689089, “Regorafenib combined with PD1 blockade increases CD8 T-cell infiltration by inducing CXCL10 expression in hepatocellular carcinoma” (Journal for Immunotherapy of Cancer, 2020).
Read-outs that look alike come from different tables or passages of the source. One block for each molecule: values may come before it.

Legend:
RIL-175 cells = experiment: CXCL10 secretion by RIL-175 cells in vitro (ELISA); assay type: cell-based, mouse; settings: 2μM for 36hr; ELISA; n=6
Excerpt: To determine if CXCL10 was produced by murine HCC cells in response to regorafenib treatment, we next cultured RIL-175 cells with various concentration of regorafenib in vitro and measured the CXCL10 levels by ELISA. […]
treated by regorafenib as standard of care (HCC) (using the DFCI Protocol No.: 13-416 “Collection of Specimens and Clinical Data for Patients with Known or Suspected Solid Tumors”, PI, Dr. Juric, MGH) or in a phase I clinical trial of regorafenib monotherapy in acute myeloid leukemia (AML) patients (ClinicalTrials.gov Identifier: NCT03042689, PI, Hobbs, MGH). Both protocols have been IRB approved, and written consent was obtained from all patients.
Protein analyses. Western blotting was performed using antibodies against Stat1 (D1K9Y), phosphorylated (p)-Stat1 (Tyr701) (D4A7), Stat3 (79D7), p-Stat3 (Ser727) (Cell Signaling Technology, Danvers, MA), and IFN-γ (EPR1108) (Abcam, Cambridge, MA). Multiplexed protein array analysis was performed for protein extracts from whole tumors, using V-PLEX Proinflammatory Panel 1 Mouse Kit, V-PLEX Cytokine Panel 1 Mouse Kit and V-PLEX […] (Meso-Scale Discovery, Rockville, MD). For cell supernatant collection, 1x10^6 of RIL-175 cells were cultured in DMEM medium with 2% FBS and regorafenib was given in a various dose.
Supernatant was collected after 36hr of incubation and multiplexed protein array analysis was done using the same kit above.
Flow cytometry analysis. Tumor tissues were extracted from the mice, weighted and minced with a scalpel. Hank’s buffered salt solution (HBSS) with 1.5mg/ml of collagenase and hyaluronidase was added to the minced tissues and incubated for 30 min at 37°C. After incubation, digested tissues were passed through the 70μm cell strainer and washed with PBS with 2% BSA. After preparation, cells were suspended in 2ml of PBS with 2% BSA, then counted using a cell counting plate (Kova slide) (if the final concentration of cell exceeded 10^7 cells/ml, a dilution factor was applied). One hundred microliters of this suspension were used per subsequent flow cytometry staining. […]

[1] = mouse, in vivo
Protocol: From the orthotopic HCC and liver damage mouse models described above, blood samples were collected at 1, 4, 7 and 24 hours after once-daily oral administration of 5, 10 and 20 mg/kg regorafenib, respectively, for 5 days. Anti-PD1 antibody was given on days 1 and 4 with dose of 10 mg/kg by intraperitoneal injection. Blood samples were drawn from four to five animals per sampling time point. Regorafenib and its active metabolites M-2, M-4 and M-5 were analyzed in plasma samples using a validated bioanalytical liquid chromatography-tandem mass spectrometry.[25 33] Pharmacokinetic (PK) parameters were derived from the area under the plasma concentration versus time curve (AUC) using a non-compartmental analysis.
In addition, we evaluated PK parameters in HCC-bearing mice after regorafenib administration alone at doses of 5, 10 and 20 mg/kg or in combination with anti-PD1 therapy at the 10 mg/kg regorafenib dose for 5 days to achieve a steady state.

advanced HCC [2] = test system: advanced HCC; parameters: method as in ref 14 15; settings: previously treated patients with advanced HCC; phase I/II trial data; ref 14 15; cited from earlier work
advanced HCC [3] = test system: advanced HCC; parameters: method as in ref 4 5; settings: patients with advanced HCC; ref 4 5; cited from earlier work

Molecule: NS(=O)(=O)c1cccc2c1C(=O)c1cccc(O)c1C2=O [LLL12]
CXCL10 expression in RIL-175 cells (RIL-175 cells): significantly increased

Plasma Tmax [1]: 7 h
Tumor Tmax [1]: 7 h
Plasma AUC ([1]; po, 5 mg/kg): 363 ng·h/mL
Plasma AUCnorm ([1]; po, 5 mg/kg): 0.0749 kg·h/L
Plasma Cmax ([1]; po, 5 mg/kg): 21.7 ng/mL
Plasma Tmax ([1]; po, 5 mg/kg): 7 h
Tumor AUC ([1]; po, 5 mg/kg): 1040 ng·h/mL
Tumor AUCnorm ([1]; po, 5 mg/kg): 0.209 kg·h/L
Tumor Cmax ([1]; po, 5 mg/kg): 52.8 µg/kg
Tumor Tmax ([1]; po, 5 mg/kg): 4 h
Plasma AUC ([1]; po, 10 mg/kg): 663 ng·h/mL
Plasma AUCnorm ([1]; po, 10 mg/kg): 0.0684 kg·h/L
Plasma Cmax ([1]; po, 10 mg/kg): 40.5 ng/mL
Plasma Tmax ([1]; po, 10 mg/kg): 7 h
Tumor AUC ([1]; po, 10 mg/kg): 2100 ng·h/mL
Tumor AUCnorm ([1]; po, 10 mg/kg): 0.210 kg·h/L
Tumor Cmax ([1]; po, 10 mg/kg): 117 µg/kg
Tumor Tmax ([1]; po, 10 mg/kg): 7 h
Plasma AUC ([1]; po, 20 mg/kg): 1480 ng·h/mL
Plasma AUCnorm ([1]; po, 20 mg/kg): 0.0763 kg·h/L
Plasma Cmax ([1]; po, 20 mg/kg): 124 ng/mL
Plasma Tmax ([1]; po, 20 mg/kg): 7 h
Tumor AUC ([1]; po, 20 mg/kg): 3780 ng·h/mL
Tumor AUCnorm ([1]; po, 20 mg/kg): 0.189 kg·h/L
Tumor Cmax ([1]; po, 20 mg/kg): 214 µg/kg
Tumor Tmax ([1]; po, 20 mg/kg): 7 h
Molecule: NC(=O)c1cc(Oc2ccc(NC(=O)Nc3ccc(Cl)c(C(F)(F)F)c3)c(F)c2)ccn1 [M-4]

Molecule: pembrolizumab: anti-PD1 antibody
Responses (advanced HCC [2]): 14%–31%

Molecule: CNC(=O)c1cc(Oc2ccc(NC(=O)Nc3ccc(Cl)c(C(F)(F)F)c3)cc2)ccn1 [Sorafenib]
OS benefit over placebo (advanced HCC [3]): approximately 3 months

Molecule: nivolumab: anti-PD1 antibody
Responses (advanced HCC [2]): 14%–31%
